# Experimental data published in patent US20060063784A1, “Method of using substituted pyrazolo [1,5-a] pyrimidines” (priority 2004, published 2006).
# Read-outs that look alike come from different tables or passages of the source.
# Tested on: 80S14 (p21-deficient) cells
# Assay: Cytotoxicity assay using isogenic cell lines: IC50 in 80S14 (p21-deficient) cells, SRB
# Assay type: cell-based, human
# Method in brief: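 IC50 is the concentration halving proliferation relative to untreated controls, read from SRB absorbance (560 nm) after TCA fixation. Test agent dilutions (5 pM–50 μM or 170 pg/ml–10 μg/ml) were left on p21-deficient 80S14 cells (12,000/well, pre-incubated overnight) for 5 days at 37 °C.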
# [1] = Homo sapiens, 120 h, 80S14 (p21-deficient) cells, 5 days, SRB, class symbols, read-out: IC50 for 80S14
# [2] = Homo sapiens, 80S14, 120 h, read-out: IC50 for 80SI4 (uM)
# [3] = Homo sapiens, 120 h, 80S14 p21-deficient cells, 5 days incubation, SRB, read-out: IC50 for 80SI4
# [4] = 80S14 p21-deficient cells, 5 days incubation, SRB, read-out: IC50 for 80SI4
# [5] = Homo sapiens, 80S14, 120 h, read-out: IC50 for 80S14 (uM)
Compound,IC50 [1],IC50 [3],further results
"Cc1cc(-c2cccc(NC(=O)C3CCC3)c2)n2ncc(C(=O)c3cccs3)c2n1 [Example 279, N-{3-[5-Methyl-3-(2-thienylcarbonyl)pyrazolo[1,5-a]pyrimidin-7-yl]phenyl}cyclobutanecarboxamide]",< 1 µM,,
"CCOc1cccc(-c2ccnc3c(C(=O)c4cccs4)cnn23)c1 [Example 263, [7-(3-Ethoxyphenyl)pyrazolo[1,5-a]pyrimidin-3-yl]-2-thienyl-methanone]",1 to 10 µM,,
"CC(C)OC(=O)Nc1cccc(-c2ccnc3c(C(=O)c4cccs4)cnn23)c1 [Example 15, isopropyl 3-[3-(thien-2-ylcarbonyl)pyrazolo[1,5-a]pyrimidin-7-yl]phenylcarbamate]",,,IC50 [2]: < 1 µM
"O=C(CCC1CCCC1)Nc1cccc(-c2ccnc3c(C(=O)c4cccs4)cnn23)c1 [Example 146, 3-cyclopentyl-N-{3-[3-(thien-2-ylcarbonyl)pyrazolo[1,5-a]pyrimidin-7-yl]phenyl}propanamide]",,1 to 10 µM,
"CC(C)CC(=O)Nc1cccc(-c2ccnc3c(-c4cccc(CN(C)C)c4)cnn23)c1 [Example 497, N-[3-(3-{3-[(Dimethylamino)methyl]phenyl}pyrazolo[1,5-a]pyrimidin-7-yl)phenyl]-3-methylbutanamide]",10 to 50 µM,,
CCCCCC(=O)Nc1cccc(-c2ccnc3c(C(=O)c4cccs4)cnn23)c1 [Example 153],,,IC50 [4]: < 1 µM
"COc1ccc(C(=O)Nc2cccc(-c3ccnc4c(C(=O)c5cccs5)cnn34)c2)cc1OC [Example 99, 3,4-dimethoxy-N-{3-[3-(thien-2-ylcarbonyl)pyrazolo[1,5-a]pyrimidin-7-yl]phenyl}benzamide]",,1 to 10 µM,
"CCOC(=O)C(=O)Nc1cccc(-c2ccnc3c(C(=O)c4cccs4)cnn23)c1 [Example 41, ethyl oxo({3-[3-(thien-2-ylcarbonyl)pyrazolo[1,5-a]pyrimidin-7-yl]phenyl}amino)acetate]",,10 to 50 µM,
"Cc1ccc(C(=O)c2cnn3c(-c4cccc(NC(=O)C5CC5)c4)ccnc23)s1 [Example 252, N-[3-[3-[(5-Methyl-2-thienyl)carbonyl]pyrazolo[1,5-a]pyrimidin-7-yl]phenyl}-cyclopropanecarboxamide]",1 to 10 µM,,
"COc1ccc(-c2ccnc3c(C(=O)c4cccs4)cnn23)c(OC)c1 [Example 246, [7-(2,4-dimethoxyphenyl)pyrazolo[1,5-a]-pyrimidin-3-yl}-2-thienyl-methanone]",10 to 50 µM,,
"O=C(CNC(=O)C1CCCCC1)Nc1cccc(-c2ccnc3c(C(=O)c4cccs4)cnn23)c1 [Example 129, N-[2-oxo-2-({3-[3-(thien-2-ylcarbonyl)pyrazolo[1,5-a]pyrimidin-7-yl]phenyl}amino)ethyl]cyclohexanecarboxamide]",,10 to 50 µM,
"Cc1ccc(C(=O)c2cnn3c(-c4cccc(N(C)C(=O)C5CC5)c4)ccnc23)cc1 [Example 268, N-Methyl-N-[3-[3-(4-methylbenzoyl)pyrazolo[1,5-a]pyrimidin-7-yl]phenyl}-cyclopropanecarboxamide]",10 to 50 µM,,
"O=C(Nc1cccc(-c2ccnc3c(C(=O)c4cccs4)cnn23)c1)c1ccc(F)c(F)c1 [Example 102, 3,4-difluoro-N-{3-[3-(thien-2-ylcarbonyl)pyrazolo[1,5-a]pyrimidin-7-yl]phenyl}benzamide]",,1 to 10 µM,
"Cc1ccccc1CC(=O)Nc1cccc(-c2ccnc3c(C(=O)c4cccs4)cnn23)c1 [Example 68, 2-(2-methylphenyl)-N-{3-[3-(thien-2-ylcarbonyl)pyrazolo[1,5-a]pyrimidin-7-yl]phenyl}acetamide]",,< 1 µM,
"O=C(c1ccccc1)c1cnn2c(-c3cccc(N4CCCC4=O)c3)ccnc12 [Example 229, 1-[3-(3-Benzoylpyrazolo[1,5-a]-pyrimidin-7-yl)phenyl]-2-pyrrolidinone]",10 to 50 µM,,
"CC(OC(=O)Nc1cccc(-c2ccnc3c(C(=O)c4cccs4)cnn23)c1)C1CC1 (stereo not shown) [Example 190, 1-cyclopropylethyl 3-[3-(thien-2-ylcarbonyl)pyrazolo[1,5-a]pyrimidin-7-yl]phenylcarbamate]",,< 1 µM,
"Cc1cc(-c2cccc(NC(=O)C3CO3)c2)n2ncc(C(=O)c3cccs3)c2n1 (stereo not shown) [Example 278, {3-[5-Methyl-3-(2-thienylcarbonyl)pyrazolo[1,5-a]pyrimidin-7-yl]phenyl}-2-oxiranecarboxamide]",,,"IC50 (80S14 (p21-deficient) cells, 5 days, SRB, class symbols, read-out: IC50 for 80S14): < 1 µM"
"CCC(OC(=O)Nc1cccc(-c2ccnc3c(C(=O)c4cccs4)cnn23)c1)C(C)C (stereo not shown) [Example 184, 1-ethyl-2-methylpropyl 3-[3-(thien-2-ylcarbonyl)pyrazolo[1,5-a]pyrimidin-7-yl]phenylcarbamate]",,1 to 10 µM,
"Cc1cc(C)cc(-c2cnn3c(-c4cccc(-c5nnn(CCN6CCCC6)n5)c4)ccnc23)c1 [Example 498, 3-(3,5-Dimethylphenyl)-7-{3-[2-(2-pyrrolidin-1-ylethyl)-2H-tetrazol-5-yl]phenyl}pyrazolo[1,5-a]pyrimidine]",1 to 10 µM,,

Compound,IC50 [1],IC50 [3],further results
"O=C(Nc1cccc(-c2ccnc3c(C(=O)c4cccs4)cnn23)c1)N[C@H]1C[C@@H]1c1ccccc1 [Example 12, N-[(1S,2R)-2-phenylcyclopropyl]-N′-{3-[3-(thien-2-ylcarbonyl)pyrazolo[1,5-a]pyrimidin-7-yl]phenyl}urea]",,< 1 µM,
"COc1ccc(-c2ccnc3c(C(=O)c4cccs4)cnn23)cc1NC(=O)c1ccccc1 [Example 315, N-{2-Methoxy-5-[3-(2-thienylcarbonyl)pyrazolo[1,5-a]pyrimidin-7-yl]phenyl}benzamide]",1 to 10 µM,,
"CC(C)(C)C(=O)Nc1cccc(-c2ccnc3c(C(=O)c4cccs4)cnn23)c1 [Example 48, 2,2-dimethyl-N-{3-[3-(thien-2-ylcarbonyl)pyrazolo[1,5-a]pyrimidin-7-yl]phenyl}propanamide]",,,IC50 [2]: < 1 µM
"O=C(c1cccs1)c1cnn2c(-c3cccc(NC(=S)Nc4cccc(-c5ccnc6c(C(=O)c7cccs7)cnn56)c4)c3)ccnc12 [Example 406, N,N′-bis {3-[3-(Thien-2-ylcarbonyl)pyrazolo[1,5-a]pyrimidin-7-yl]phenyl}thiourea]",10 to 50 µM,,
"Cn1cnc(S(=O)(=O)Nc2cccc(-c3ccnc4c(C(=O)c5cccs5)cnn34)c2)c1 [Example 39, 1-methyl-N-{3-[3-(thien-2-ylcarbonyl)pyrazolo[1,5-a]pyrimidin-7-yl]phenyl}-1H-imidazole-4-sulfonamide]",,10 to 50 µM,
"O=C(Nc1cccc(-c2ccnc3c(C(=O)c4cccs4)cnn23)c1)c1cnc2ccccc2c1 [Example 70, N-{3-[3-(thien-2-ylcarbonyl)pyrazolo[1,5-a]pyrimidin-7-yl]phenyl}quinoline-3-carboxamide]",,1 to 10 µM,
"NCC(=O)Nc1cccc(-c2ccnc3c(C(=O)c4cccs4)cnn23)c1 [Example 77, N-1-{3-[3-(thien-2-ylcarbonyl)pyrazolo[1,5-a]pyrimidin-7-yl]phenyl}gylcinamide]",,,IC50 [4]: 10 to 50 µM
"C=CCOC(=O)Nc1cccc(-c2c(C)cnc3c(C(=O)c4cccs4)cnn23)c1 [Example 210, allyl 3-[6-methyl-3-(thien-2-ylcarbonyl)pyrazolo[1,5-a]pyrimidin-7-yl]phenylcarbamate]",,10 to 50 µM,
"CCCCCCC(=O)Nc1cccc(-c2ccnc3c(C(=O)c4cccs4)cnn23)c1 [Example 151, N-{3-[3-(thien-2-ylcarbonyl)pyrazolo[1,5-a]pyrimidin-7-yl]phenyl}heptanamide]",,1 to 10 µM,
"CC(C)OC(=O)Nc1cccc(-c2ccnc3c(C(=O)c4ccco4)cnn23)c1 [Example 299, Isopropyl 3-[3-(2-furoyl)pyrazolo[1,5-a]pyrimidin-7-yl]phenylcarbamate]",,,IC50 [5]: < 1 µM
"CCCC(C)CNc1cccc(-c2ccnc3c(C(=O)c4cccs4)cnn23)c1 (stereo not shown) [Example 418, (7-{3-[(2-Methylpentyl)amino]phenyl}pyrazolo[1,5-a]pyrimidin-3-yl)(thien-2-yl)methanone]",1 to 10 µM,,
"CCC(CC)CNc1cccc(-c2ccnc3c(C(=O)c4cccs4)cnn23)c1 [Example 403, (7-{3-[(2-Ethylbutyl)amino]phenyl}pyrazolo[1,5-a]pyrimidin-3-yl)(thien-2-yl)methanone]",1 to 10 µM,,
"CCCCS(=O)(=O)Nc1cccc(-c2ccnc3c(C(=O)c4cccs4)cnn23)c1 [Example 29, N-{3-[3-(thien-2-ylcarbonyl)pyrazolo[1,5-a]pyrimidin-7-yl]phenyl}butane-1-sulfonamide]",,1 to 10 µM,
"Cc1cnc2c(C(=O)c3cccs3)cnn2c1-c1cccc(NC(=O)Cc2cccs2)c1 [Example 219, N-{3-[6-methyl-3-(thien-2-ylcarbonyl)pyrazolo[1,5-a]pyrimidin-7-yl]phenyl}-2-thien-2-ylacetamide]",,10 to 50 µM,
"CC(C)CC(=O)Nc1cccc(-c2ccnc3c(C(=O)c4ccoc4)cnn23)c1 [Example 304, N-{3-[3-(3-Furoyl)pyrazolo[1,5-a]pyrimidin-7-yl]phenyl}-3-methylbutanamide]",,,IC50 [5]: 1 to 10 µM
"CN(C)CCNC(=O)Nc1cccc(-c2ccnc3c(C(=O)c4cccs4)cnn23)c1 [Example 161, N-[2-(dimethylamino)ethyl]-N′-{3-[3-(thien-2-ylcarbonlyl)pyrazolo[1,5-a]pyrimidin-7-yl]phenyl}urea]",,,IC50 [4]: 10 to 50 µM
"C#CCN(C(=O)C1CC1)c1cccc(-c2ccnc3c(C(=O)c4cccs4)cnn23)c1 [Example 259, N-2-Propynyl-N-[3-[3-(2-thienylcarbonyl)pyrazolo[1,5-a]pyrimidin-7-yl]phenyl}-cyclopropanecarboxamide]",1 to 10 µM,,
"CCN(C(=O)C1CC1)c1cccc(-c2ccnc3ccnn23)c1 [Example 254, N-Ethyl-N-(3-pyrazolo[1,5-a]pyrimidin-7-ylphenyl)-cyclopropanecarboxamide]",10 to 50 µM,,
